Data published in ChEMBL document CHEMBL5678816, “A Next-Generation TRK Kinase Inhibitor Overcomes Acquired Resistance to Prior TRK Kinase Inhibition in Patients with TRK Fusion-Positive Solid Tumors” (Cancer Discov, 2017).
The source made the active and inactive calls. No cut-off for these calls is given here.

Columns and labels:
[1] = molecular target: Serine/threonine-protein kinase PAK 6 (Homo sapiens) (UniProt Q9NQU5); test: Inhibition of PAK6 (unknown origin) at 1 uM in presence of ATP relative to control; values are per cent of control
[2] = molecular target: Homeodomain-interacting protein kinase 2 (Homo sapiens) (UniProt Q9H2X6); test: Inhibition of HIPK2 (unknown origin) at 1 uM in presence of ATP relative to control; values are per cent of control
Chain of Homeodomain-interacting protein kinase 2 (Homo sapiens) (Q9H2X6 whole entry, looked up): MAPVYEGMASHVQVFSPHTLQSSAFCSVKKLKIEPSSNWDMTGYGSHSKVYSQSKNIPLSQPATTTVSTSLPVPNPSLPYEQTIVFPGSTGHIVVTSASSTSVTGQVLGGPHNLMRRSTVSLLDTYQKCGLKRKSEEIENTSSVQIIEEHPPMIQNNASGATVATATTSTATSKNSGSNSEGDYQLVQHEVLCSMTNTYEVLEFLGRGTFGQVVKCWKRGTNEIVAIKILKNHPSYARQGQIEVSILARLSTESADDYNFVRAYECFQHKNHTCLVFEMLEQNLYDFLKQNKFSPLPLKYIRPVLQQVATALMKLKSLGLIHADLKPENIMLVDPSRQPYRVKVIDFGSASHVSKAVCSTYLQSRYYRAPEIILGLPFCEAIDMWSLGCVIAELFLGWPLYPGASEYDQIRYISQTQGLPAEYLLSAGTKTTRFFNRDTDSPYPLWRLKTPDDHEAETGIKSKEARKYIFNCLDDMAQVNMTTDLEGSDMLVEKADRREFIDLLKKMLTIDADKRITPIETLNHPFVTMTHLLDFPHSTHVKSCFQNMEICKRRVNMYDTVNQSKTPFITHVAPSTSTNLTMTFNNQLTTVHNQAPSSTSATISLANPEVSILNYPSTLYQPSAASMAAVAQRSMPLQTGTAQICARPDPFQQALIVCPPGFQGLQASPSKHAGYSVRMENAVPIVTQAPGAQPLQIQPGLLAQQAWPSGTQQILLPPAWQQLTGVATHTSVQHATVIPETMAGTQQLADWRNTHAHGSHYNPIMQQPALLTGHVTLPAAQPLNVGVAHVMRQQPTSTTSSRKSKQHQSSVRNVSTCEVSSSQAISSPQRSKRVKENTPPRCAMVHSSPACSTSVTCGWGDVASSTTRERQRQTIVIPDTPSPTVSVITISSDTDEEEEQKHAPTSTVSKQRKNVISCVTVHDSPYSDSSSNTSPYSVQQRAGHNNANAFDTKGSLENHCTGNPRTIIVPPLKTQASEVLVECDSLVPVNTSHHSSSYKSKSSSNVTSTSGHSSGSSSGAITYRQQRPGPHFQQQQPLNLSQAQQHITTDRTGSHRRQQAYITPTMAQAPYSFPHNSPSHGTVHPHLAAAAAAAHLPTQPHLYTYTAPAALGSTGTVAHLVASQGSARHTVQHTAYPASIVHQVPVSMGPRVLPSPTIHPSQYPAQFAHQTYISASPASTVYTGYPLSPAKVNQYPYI

[3] = molecular target: Mitogen-activated protein kinase 1 (Homo sapiens) (UniProt P28482); test: Inhibition of ERK2 (unknown origin) at 1 uM in presence of ATP relative to control; values are per cent of control
[4] = molecular target: Cyclin-dependent kinase 2/cyclin E1 (Homo sapiens) (UniProt P24864+P24941); test: Inhibition of CDK2/cyclinE (unknown origin) at 1 uM in presence of ATP relative to control; values are per cent of control
SAOS-2 = test: Inhibition of cell proliferation in human SAOS-2 cells upto 10 umol/L incubated for 72 hrs by DAPI staining based analysis; assay type: functional; conditions: dose <= 10.0 µmol/L
[5] = molecular target: Ribosomal protein S6 kinase alpha-3 (Homo sapiens) (UniProt P51812); test: Inhibition of Rsk2 (unknown origin) at 1 uM in presence of ATP relative to control; values are per cent of control
Chain of Ribosomal protein S6 kinase alpha-3 (Homo sapiens) (P51812 whole entry, canonical isoform): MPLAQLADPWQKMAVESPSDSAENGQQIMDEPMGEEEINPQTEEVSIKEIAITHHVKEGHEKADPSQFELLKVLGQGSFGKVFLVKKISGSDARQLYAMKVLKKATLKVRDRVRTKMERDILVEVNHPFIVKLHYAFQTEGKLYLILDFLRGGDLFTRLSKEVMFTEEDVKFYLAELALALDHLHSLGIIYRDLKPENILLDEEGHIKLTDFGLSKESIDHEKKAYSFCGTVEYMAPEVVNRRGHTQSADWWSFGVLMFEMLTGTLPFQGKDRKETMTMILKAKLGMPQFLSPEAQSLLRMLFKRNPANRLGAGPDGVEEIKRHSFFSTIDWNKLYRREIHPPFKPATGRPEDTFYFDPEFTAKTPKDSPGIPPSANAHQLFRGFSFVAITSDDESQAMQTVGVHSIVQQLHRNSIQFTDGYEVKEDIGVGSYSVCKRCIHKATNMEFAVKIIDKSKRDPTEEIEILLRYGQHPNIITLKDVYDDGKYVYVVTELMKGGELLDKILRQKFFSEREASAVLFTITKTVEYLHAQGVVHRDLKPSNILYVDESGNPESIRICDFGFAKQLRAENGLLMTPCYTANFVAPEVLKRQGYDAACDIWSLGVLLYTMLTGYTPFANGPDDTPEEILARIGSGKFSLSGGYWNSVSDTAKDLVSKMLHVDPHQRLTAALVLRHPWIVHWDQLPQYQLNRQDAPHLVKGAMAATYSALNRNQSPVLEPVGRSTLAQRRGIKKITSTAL

[6] = molecular target: Casein kinase I isoform delta (Homo sapiens) (UniProt P48730); test: Inhibition of CK1delta (unknown origin) at 1 uM in presence of ATP relative to control; values are per cent of control
[7] = molecular target: Casein kinase I isoform gamma-2 (Homo sapiens) (UniProt P78368); test: Inhibition of CK1gamma2 (unknown origin) at 1 uM in presence of ATP relative to control; values are per cent of control
Homo sapiens = organism: Homo sapiens; test: Inhibition of CDK2/cyclinA (unknown origin) at 1 uM in presence of ATP relative to control; values are per cent of control
[8] = molecular target: Tyrosine-protein kinase Fgr (Homo sapiens) (UniProt P09769); test: Inhibition of Fgr (unknown origin) at 1 uM in presence of ATP relative to control; values are per cent of control
CML-T1 = test: Inhibition of cell proliferation in human CML-T1 cells upto 10 umol/L incubated for 72 hrs by DAPI staining based analysis; assay type: functional; conditions: dose <= 10.0 µmol/L
[9] = molecular target: Mitogen-activated protein kinase 3 (Homo sapiens) (UniProt P27361); test: Inhibition of ERK1 (unknown origin) at 1 uM in presence of ATP relative to control; values are per cent of control
Chain of Mitogen-activated protein kinase 3 (Homo sapiens) (P27361 whole entry): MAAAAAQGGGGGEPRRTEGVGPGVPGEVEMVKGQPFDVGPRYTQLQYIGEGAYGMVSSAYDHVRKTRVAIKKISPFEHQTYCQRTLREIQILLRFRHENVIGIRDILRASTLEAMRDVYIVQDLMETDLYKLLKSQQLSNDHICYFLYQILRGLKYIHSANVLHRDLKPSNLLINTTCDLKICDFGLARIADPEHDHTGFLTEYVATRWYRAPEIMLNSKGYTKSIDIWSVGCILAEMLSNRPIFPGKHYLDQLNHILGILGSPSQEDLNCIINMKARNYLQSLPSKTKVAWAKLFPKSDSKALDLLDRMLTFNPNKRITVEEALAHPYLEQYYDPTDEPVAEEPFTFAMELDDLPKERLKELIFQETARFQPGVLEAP

[10] = molecular target: Tyrosine-protein kinase Fer (Homo sapiens) (UniProt P16591); test: Inhibition of Fer (unknown origin) at 1 uM in presence of ATP relative to control; values are per cent of control
Rec1 = test: Inhibition of cell proliferation in human REC1 cells upto 10 umol/L incubated for 72 hrs by DAPI staining based analysis; assay type: functional; conditions: dose <= 10.0 µmol/L
[11] = molecular target: Serine/threonine-protein kinase TAO1 (Homo sapiens) (UniProt Q7L7X3); test: Inhibition of TAO1 (unknown origin) at 1 uM in presence of ATP relative to control; values are per cent of control
Chain of Serine/threonine-protein kinase TAO1 (Homo sapiens) (Q7L7X3 whole entry): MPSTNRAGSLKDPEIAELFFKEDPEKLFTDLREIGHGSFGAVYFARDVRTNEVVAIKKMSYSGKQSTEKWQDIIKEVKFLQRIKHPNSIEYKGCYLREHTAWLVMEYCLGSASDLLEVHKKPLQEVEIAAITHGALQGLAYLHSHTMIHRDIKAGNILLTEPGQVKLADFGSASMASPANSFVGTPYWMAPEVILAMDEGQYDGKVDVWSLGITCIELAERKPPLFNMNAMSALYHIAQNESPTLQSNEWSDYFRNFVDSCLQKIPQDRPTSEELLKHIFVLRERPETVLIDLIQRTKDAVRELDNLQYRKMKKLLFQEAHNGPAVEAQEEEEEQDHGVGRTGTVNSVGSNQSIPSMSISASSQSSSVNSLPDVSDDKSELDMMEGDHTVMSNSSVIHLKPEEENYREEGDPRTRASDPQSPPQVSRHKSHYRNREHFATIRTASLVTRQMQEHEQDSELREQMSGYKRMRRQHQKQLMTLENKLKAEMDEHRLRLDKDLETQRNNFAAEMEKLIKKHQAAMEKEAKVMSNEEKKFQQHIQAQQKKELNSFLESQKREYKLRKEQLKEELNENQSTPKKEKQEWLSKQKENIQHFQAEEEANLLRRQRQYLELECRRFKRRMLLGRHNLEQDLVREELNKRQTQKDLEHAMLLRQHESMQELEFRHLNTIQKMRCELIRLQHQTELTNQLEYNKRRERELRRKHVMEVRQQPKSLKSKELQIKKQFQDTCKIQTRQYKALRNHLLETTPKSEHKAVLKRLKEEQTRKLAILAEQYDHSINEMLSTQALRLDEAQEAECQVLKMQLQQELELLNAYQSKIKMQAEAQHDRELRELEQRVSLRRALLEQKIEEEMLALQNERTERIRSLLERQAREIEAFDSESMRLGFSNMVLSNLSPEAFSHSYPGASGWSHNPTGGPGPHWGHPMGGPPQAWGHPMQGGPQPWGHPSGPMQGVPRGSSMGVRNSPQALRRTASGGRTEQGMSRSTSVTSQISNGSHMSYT

[12] = Cmin in pediatric patient with recurrent ETV6-NTRK3-rearranged infantile fibrosarcoma at 60 mg administered twice a day as liquid formulation for 29 day and measured 12 hrs post dose by LC-MS/MS analysis; assay type: ADME; conditions: human, in vivo, read-out: Cmin
[13] = molecular target: Calcium/calmodulin-dependent protein kinase type II subunit gamma (Homo sapiens) (UniProt Q13555); test: Inhibition of CAMK2g (unknown origin) at 1 uM in presence of ATP relative to control; values are per cent of control
Chain of Calcium/calmodulin-dependent protein kinase type II subunit gamma (Homo sapiens) (Q13555 whole entry): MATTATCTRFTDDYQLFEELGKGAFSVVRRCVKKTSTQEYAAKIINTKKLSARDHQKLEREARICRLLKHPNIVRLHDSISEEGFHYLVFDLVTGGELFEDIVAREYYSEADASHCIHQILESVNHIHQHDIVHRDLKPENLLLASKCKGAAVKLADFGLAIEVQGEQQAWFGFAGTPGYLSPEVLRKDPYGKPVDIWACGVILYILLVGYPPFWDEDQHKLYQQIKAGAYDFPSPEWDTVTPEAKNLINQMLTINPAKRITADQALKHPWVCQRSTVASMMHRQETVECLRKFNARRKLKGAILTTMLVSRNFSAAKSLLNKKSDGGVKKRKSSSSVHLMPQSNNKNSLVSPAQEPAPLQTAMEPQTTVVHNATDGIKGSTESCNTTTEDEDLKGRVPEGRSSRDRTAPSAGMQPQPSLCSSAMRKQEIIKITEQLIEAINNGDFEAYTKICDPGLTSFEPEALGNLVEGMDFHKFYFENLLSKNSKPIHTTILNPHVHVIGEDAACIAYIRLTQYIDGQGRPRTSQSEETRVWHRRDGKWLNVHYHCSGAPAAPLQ

LC2 = test: Inhibition of cell proliferation in human LC2 cells upto 10 umol/L incubated for 72 hrs by DAPI staining based analysis; assay type: functional; conditions: dose <= 10.0 µmol/L
[14] = molecular target: Homeodomain-interacting protein kinase 1 (Homo sapiens) (UniProt Q86Z02); test: Inhibition of HIPK1 (unknown origin) at 1 uM in presence of ATP relative to control; values are per cent of control
Chain of Homeodomain-interacting protein kinase 1 (Homo sapiens) (Q86Z02 whole entry, looked up, the tested form may be a part): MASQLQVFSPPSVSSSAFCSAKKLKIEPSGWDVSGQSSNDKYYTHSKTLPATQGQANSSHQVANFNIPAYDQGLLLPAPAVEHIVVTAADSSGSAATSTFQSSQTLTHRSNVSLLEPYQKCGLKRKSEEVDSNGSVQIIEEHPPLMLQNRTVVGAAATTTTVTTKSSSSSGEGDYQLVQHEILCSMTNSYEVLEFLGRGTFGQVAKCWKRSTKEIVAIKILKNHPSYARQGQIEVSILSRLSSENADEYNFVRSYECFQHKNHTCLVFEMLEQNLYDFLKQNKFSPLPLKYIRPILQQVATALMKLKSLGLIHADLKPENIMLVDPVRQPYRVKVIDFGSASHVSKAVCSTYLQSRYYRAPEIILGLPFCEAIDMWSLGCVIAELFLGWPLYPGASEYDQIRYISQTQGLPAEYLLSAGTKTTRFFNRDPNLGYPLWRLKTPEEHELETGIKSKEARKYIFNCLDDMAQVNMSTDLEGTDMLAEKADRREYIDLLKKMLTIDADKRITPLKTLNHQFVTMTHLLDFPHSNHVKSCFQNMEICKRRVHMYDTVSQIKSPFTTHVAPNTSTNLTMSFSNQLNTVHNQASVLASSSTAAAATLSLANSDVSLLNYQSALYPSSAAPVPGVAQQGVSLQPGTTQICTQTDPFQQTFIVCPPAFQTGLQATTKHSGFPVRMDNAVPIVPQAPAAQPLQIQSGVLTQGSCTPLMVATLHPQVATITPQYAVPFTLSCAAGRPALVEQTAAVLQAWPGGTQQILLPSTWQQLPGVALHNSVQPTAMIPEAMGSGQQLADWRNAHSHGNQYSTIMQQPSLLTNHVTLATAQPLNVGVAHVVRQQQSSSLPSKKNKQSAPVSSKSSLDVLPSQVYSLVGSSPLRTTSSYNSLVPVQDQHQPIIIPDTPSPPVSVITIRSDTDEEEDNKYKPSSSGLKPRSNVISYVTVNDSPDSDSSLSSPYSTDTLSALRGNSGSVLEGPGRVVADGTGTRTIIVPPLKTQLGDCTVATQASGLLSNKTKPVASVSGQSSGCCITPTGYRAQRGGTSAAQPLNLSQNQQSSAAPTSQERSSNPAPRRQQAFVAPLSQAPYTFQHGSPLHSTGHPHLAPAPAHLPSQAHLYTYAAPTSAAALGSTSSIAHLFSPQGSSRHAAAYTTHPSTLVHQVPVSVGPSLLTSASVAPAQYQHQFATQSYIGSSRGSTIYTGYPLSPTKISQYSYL

[15] = Inhibition of human extracellular domain deleted TRKA G667S mutant expressed in mouse NIH3T3 cells assessed as reduction in TRKA phosphorylation incubated for 1 hrs by ELISA; assay type: cell-based; conditions: NIH3T3, 1 h
[16] = molecular target: Serine/threonine-protein kinase PAK 5 (Homo sapiens) (UniProt Q9P286); test: Inhibition of PAK5 (unknown origin) at 1 uM in presence of ATP relative to control; values are per cent of control
[17] = AUC in adult patient with recurrent LMNA-NTRK1 rearranged colorectal cancer at 100 mg administered twice a day as powder-in-capsule or liquid formulation for 22 day by LC-MS/MS analysis; assay type: ADME; conditions: human, in vivo, po
[18] = molecular target: Mitogen-activated protein kinase 8 (Homo sapiens) (UniProt P45983); test: Inhibition of JNK1alpha1 (unknown origin) at 1 uM in presence of ATP relative to control; values are per cent of control
TAK1/TAB1 (Homo sapiens) = TAK1/TAB1 (Homo sapiens) (UniProt Q15750+O43318); test: Inhibition of TAK1-TAB1 (unknown origin) at 1 uM in presence of ATP relative to control; values are per cent of control
[19] = Inhibition of N-terminal 6His-tagged TRKC G696A mutant (506 to 829 residues) (unknown origin) expressed in Escherichia coli incubated for 60 mins by [gamma-33P]-ATP based TopCount NXT liquid scintillation assay; parameters: species or system Homo sapiens
[20] = Inhibition of cell proliferation in ETV6-NTRK3 fusion positive human MO-91 cells incubated for 72 hrs by DAPI staining based analysis; assay type: functional; conditions: MO-91, 72 h
[21] = molecular target: Epidermal growth factor receptor (Homo sapiens) (UniProt P00533); test: Inhibition of EGFR (unknown origin) at 1 uM in presence of ATP relative to control; values are per cent of control
[22] = molecular target: Protein-tyrosine kinase 6 (Homo sapiens) (UniProt Q13882); test: Inhibition of PTK6 (unknown origin) at 1 uM in presence of ATP relative to control; values are per cent of control
[23] = molecular target: Tyrosine-protein kinase JAK3 (Homo sapiens) (UniProt P52333); test: Inhibition of JAK3 (unknown origin) at 1 uM in presence of ATP relative to control; values are per cent of control

- residual activity [1]: 99%
- residual activity [2]: 113%
- residual activity [3]: 105%
- residual activity [4]: 106%
- residual activity [5]: 134%
- residual activity [6]: 110%
- residual activity [7]: 112%
- residual activity (Homo sapiens): 109%
- residual activity [8]: 96%
- residual activity [9]: 111%
- residual activity [10]: 91%
- residual activity [11]: 102%
- concentration at 708 h [12]: 12 ng/mL
- residual activity [13]: 95%
- residual activity [14]: 106%
- IC50 [15]: 25 nM
- residual activity [16]: 104%
- AUC at 528 h [17]: 3870 ng·h/mL
- residual activity [18]: 106%
- residual activity (TAK1/TAB1 (Homo sapiens)): 100%
- IC50 [19]: < 2.5 nM
- residual activity [21]: 103%
- residual activity [22]: 98.5%
- residual activity [23]: 103%
Compound: C[C@@H]1CCc2ncc(F)cc2[C@H]2CCCN2c2ccn3ncc(c3n2)C(=O)N1 [SELITRECTINIB]
- inhibition (SAOS-2): inactive
- inhibition (CML-T1): inactive
- inhibition (Rec1): inactive
- inhibition (LC2): inactive
- IC50 [20]: ≤ 5 nM
